In patent US20090203750A1, “5-HT2C Receptor Agonists as Anorectic Agents” (priority 2005, published 2009):
Read-outs that look alike come from different tables or passages of the source.

How the values were obtained:
6 Hz seizure model = 6 Hz seizure model in mice; format: in vivo; settings: 100 mg/kg i.p.
human 5-HT2A receptor = target: T1, human 5-HT2A receptor (Homo sapiens, UniProt P28223); assay: Functional activity by Ca++-flux (intracellular calcium mobilization), 5-HT2A; format: cell-based
T1 construct: expressed in transfected cells; host or cells: HEK-293
Protocol: The functional activity of the compounds for the human 5-HT2A, human 5-HT2B, and human 5-HT2C receptors is determined by measurement of Ca++-flux as detailed in the Examples, in transiently transfected HEK-293 cells and the results are summarized in Table I. Structures of compounds listed in Table I are given in Scheme 15.
(§1) The functional activity of compounds for the human 5-HT2A, human 5-HT2B, and human 5-HT2C receptors as agonists, partial agonists and antagonists is determined by measurement of Ca++-flux. The results are summarized in Table 1 where EC50 for different receptors are given (nM) and the ratio of activities 2A/2C and 2B/2C are also given. As noted above, other methods for assessing agonist/antagonist function of compounds for 5-HT2 family receptors are known in the art.
(§2) For these studies stably expressing lines of h5-HT2A, h5-HT2B, and h5-HT2C receptors are prepared in HEK-293 cells. For the h5-HT2A and h5-HT2C-INI receptors, stably expressing HEK-293 cell lines were constructed as previously described using a pIRES-NEO vector system (See: Rauser et al, J Pharmacol Exp Ther 299: 83-89, 2001).
(§3) Stable cell lines were plated with ˜40,000 cells/well into uncoated (3T3 cells) or poly-L-lysine coated (HEK293 cells) 96-well plates in DMEM supplemented with 5% dialyzed FBS. 16-24 hrs post-plating, the medium was aspirated and replaced with 30 μl/well of Calcium Assay Kit Component A Dye (Molecular Devices; Sunnyvale, Calif.) dissolved in 30 ml/bottle of assay buffer (2.5 mM probenecid, 20 mM Hepes, and 1× Hanks' Balanced Salt Solution (Invitrogen; Carlsbad, Calif.) (138 mM NaCl, 5.3 mM KCl, 1.3 mM CaCl2, 0.49 mM MgCl2, 0.41 mM MgSO4, 0.44 mM KH2PO4, 0.34 mM Na2HPO4) pH 7.4. Plates were incubated in the dye for 1 hr at 37° C. Dilutions were made in assay buffer as 2× stocks and added to 96-well drug plates. Fluorometric imaging was performed using a FlexStation II plate reader (Molecular Devices) reading the plate at 1.5 second intervals for 1 min. After establishing a fluorescent baseline (excitation at 485 nm and emission at 525 nm, using a […] cutoff), the FlexStation II automatically transferred 30 μl of 2× drug stocks from the drug plate to the cell plate at the 20 second time point with reading for another 40 seconds. Peak relative fluorescence units (RFU) were subtracted from baseline RFUs using SoftMax Pro (Molecular Devices) and values were imported into GraphPad Prism version 4.03 (GraphPad Software; San Diego, Calif.) for analysis. Ca++-flux studies are very convenient for initial screening of large numbers of compounds for agonist activity.
Compounds are resuspended in DMSO at a stock concentration of 2-15 mM and, for a typical agonist screen, are diluted in assay buffer to a final 2× concentration of 20 μM into drugs plates. Compounds are added in duplicate to cell plates using the FlexStation II as described to identify agonists, defined as having >10% of maximal 5-HT response. […] Generally, screens are performed twice with each determination being made in duplicate. Typical Z′-factor (Zhang et al., 1999) values for agonist screens ranged from 0.61-0.79 (5-HT2AR), 0.42-0.81 (5-HT2BR) and 0.38-0.72 (5-HT2CR); these Z′-factor values are adequate for screening studies in which N=2 determinations are made and the screens replicated for a total of N=4 determinations.
(§4) Compounds identified by primary screens to be agonists are subsequently used in concentration-response experiments to verify the initial observations and obtain agonist potencies. Concentration-response studies are performed in triplicate or quadruplicate at each concentration and repeated three times. Baseline-subtracted RFU values imported into GraphPad Prism are analyzed by non-linear regression to obtain pEC50 values, and normalized to maximal 5-HT response to obtain relative efficacies.

human 5-HT2C receptor = target: T2, human 5-HT2C receptor (Homo sapiens, UniProt P28335); assay: Functional activity by Ca++-flux (intracellular calcium mobilization), 5-HT2C; format: cell-based; settings: for EC50: Ca++-flux, HEK-293 cells, NA = not active, read-out: 5-HT2C human EC50; for 2A/2C ratio: ratio of EC50 5-HT2A / 5-HT2C; for 2B/2C ratio: ratio of EC50 5-HT2B / 5-HT2C
T2 construct: expressed in transfected cells; host or cells: HEK-293
T2 sequence (P28335 33-458): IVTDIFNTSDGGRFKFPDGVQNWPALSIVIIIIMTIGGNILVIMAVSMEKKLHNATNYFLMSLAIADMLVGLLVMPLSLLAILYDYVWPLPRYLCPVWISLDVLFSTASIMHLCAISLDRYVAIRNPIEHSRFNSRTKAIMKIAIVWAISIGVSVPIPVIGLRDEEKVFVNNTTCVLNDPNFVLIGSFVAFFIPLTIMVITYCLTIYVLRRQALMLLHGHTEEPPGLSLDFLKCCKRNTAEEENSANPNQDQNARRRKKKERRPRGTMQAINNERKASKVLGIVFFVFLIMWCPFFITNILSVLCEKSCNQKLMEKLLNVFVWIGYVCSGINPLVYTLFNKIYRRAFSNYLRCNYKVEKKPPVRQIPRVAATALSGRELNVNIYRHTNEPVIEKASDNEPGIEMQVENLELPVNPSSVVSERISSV
Protocol: as §1, with “The results are summarized in Table 1 where EC50 for different receptors are given (nM) and the ratio of activities 2A/2C and 2B/2C are also given.” left out
as §2, §3
Compounds are resuspended in DMSO at a stock concentration of 2-15 mM and, for a typical agonist screen, are diluted in assay buffer to a final 2× concentration of 20 μM into drugs plates. Compounds are added in duplicate to cell plates using the FlexStation II as described to identify agonists, defined as having >10% of maximal 5-HT response. […] Generally, screens are performed twice with each determination being made in duplicate.
as §4

human 5-HT2B receptor = target: T3, human 5-HT2B receptor (Homo sapiens, UniProt P41595); assay: Functional activity by Ca++-flux (intracellular calcium mobilization), 5-HT2B; format: cell-based; settings: for EC50: read-out: 5-HT2B human EC50
T3 construct: expressed in transfected cells; host or cells: HEK293 (ATCC CRL-1573), retroviral infection with pBabepuro-FLAG-h5-HT2BR, polyclonal line

MOA = settings: in vivo in rats, tryptamine potentiation test; Kaiser / Zirkel 1962; cited from earlier work
[1] = Ca++-flux, HEK-293 cells, NA = not active, Hydrochloride
[2] = Ca++-flux, HEK-293 cells, NA = not active

T3 sequence (P41595 whole entry): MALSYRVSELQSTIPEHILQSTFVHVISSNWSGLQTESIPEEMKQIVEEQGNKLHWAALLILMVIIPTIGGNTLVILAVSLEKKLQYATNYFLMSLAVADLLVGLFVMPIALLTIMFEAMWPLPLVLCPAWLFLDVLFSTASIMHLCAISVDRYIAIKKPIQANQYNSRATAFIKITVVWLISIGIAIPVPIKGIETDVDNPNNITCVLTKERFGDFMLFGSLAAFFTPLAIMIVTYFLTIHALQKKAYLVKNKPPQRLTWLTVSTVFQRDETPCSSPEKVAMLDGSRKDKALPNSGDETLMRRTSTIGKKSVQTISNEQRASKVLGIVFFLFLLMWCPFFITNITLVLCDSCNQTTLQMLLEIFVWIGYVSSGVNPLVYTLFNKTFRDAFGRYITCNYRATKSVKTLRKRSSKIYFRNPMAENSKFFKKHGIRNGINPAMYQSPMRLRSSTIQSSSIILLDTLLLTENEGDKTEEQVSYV
T1 sequence (P28223 whole entry): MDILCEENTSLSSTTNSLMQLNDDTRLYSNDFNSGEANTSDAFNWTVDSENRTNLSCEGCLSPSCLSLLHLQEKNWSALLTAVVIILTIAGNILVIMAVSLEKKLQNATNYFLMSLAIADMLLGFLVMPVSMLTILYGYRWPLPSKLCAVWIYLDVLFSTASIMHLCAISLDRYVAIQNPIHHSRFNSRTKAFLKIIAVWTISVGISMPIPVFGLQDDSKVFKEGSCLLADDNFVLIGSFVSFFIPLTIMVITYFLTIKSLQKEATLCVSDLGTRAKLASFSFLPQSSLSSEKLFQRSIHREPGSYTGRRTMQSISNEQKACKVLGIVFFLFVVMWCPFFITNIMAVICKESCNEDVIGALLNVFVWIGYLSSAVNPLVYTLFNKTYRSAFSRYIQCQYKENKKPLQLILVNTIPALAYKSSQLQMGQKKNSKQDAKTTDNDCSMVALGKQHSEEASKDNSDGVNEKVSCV

| Substance | EC50 (human 5-HT2A receptor; [1]) [nM] | EC50 (human 5-HT2C receptor; Hydrochloride) [nM] | 2A/2C ratio (human 5-HT2C receptor; Hydrochloride) | 2B/2C ratio (human 5-HT2C receptor; Hydrochloride) | EC50 (human 5-HT2B receptor; [1]) [nM] | EC50 (human 5-HT2A receptor; [2]) [nM] | EC50 (human 5-HT2C receptor) [nM] | 2A/2C ratio (human 5-HT2C receptor) | 2B/2C ratio (human 5-HT2C receptor) | EC50 (human 5-HT2B receptor; [2]) [nM] | other results |
| --- | --- | --- | --- | --- | --- | --- | --- | --- | --- | --- | --- |
| trans-(±)-(2-Phenyl-cyclopropyl)-methylamine Hydrochloride [TKU-II-17] | 49.7 | 9.6 | 5.18 | 1.94 | 18.6 |  |  |  |  |  | motor impairment (6 Hz seizure model; 15-60 minutes after dosing): minimal motor impairment; animals protected from seizure (6 Hz seizure model; after four hours): three of the four |
| trans-aminomethyl-2-phenylcyclopropylamine |  |  |  |  |  |  |  |  |  |  | inhibition of MOA (MOA): not to inhibit MOA |
| trans-(+)-[2-(3-Bromo-phenyl)-cyclopropyl]-methylamine Hydrochloride [TKU-II-153-1] |  |  |  |  |  | 48.7 | 11.4 | 4.3 | 1.8 | 21.3 |  |
| trans-(±)-(2-Phenyl-cyclopropyl)-methylamine Hydrochloride [TKU-II-113] | 44.3 | 4.5 | 9.84 | 7.84 | 35.3 |  |  |  |  |  |  |
| trans-(±)-[2-(4′-Trifluoromethyl-biphenyl-2-yl)-cyclopropyl]-methylamine Hydrochloride [TKU-II-120] |  |  |  |  |  |  | 10.1 |  |  |  | 5-HT2A human EC50 (human 5-HT2A receptor; [2]): Not; 5-HT2B human EC50 (human 5-HT2B receptor; [2]): Not |
| cis-(±)-(2-Phenyl-cyclopropyl)-methylamine Hydrochloride [TKU-II-19] |  |  |  |  |  | 705 | 152 | 4.64 | 2.03 | 308 | activity at 5-HT2A receptor (human 5-HT2A receptor): poorly active; activity at 5-HT2C receptor (human 5-HT2C receptor): poorly active; activity at 5-HT2B receptor (human 5-HT2B receptor): poorly active |
